The values below come from US8309107B2, “Stable solutions of orlistat for pharmaceutical dosage forms” (Banner Pharmacaps, Inc., priority 2008, dated 2012).

This data set is described as follows: Compatibility of orlistat with surfactants. It is filed as physicochemical. To be noted: Chremophor EL emulsifying agent.

`CCCCCCCCCCC[C@@H](C[C@@H]1OC(=O)[C@H]1CCCCCC)OC(=O)[C@H](CC(C)C)NC=O` [orlistat]: the “effect of surfactant on degradation of orlistat” value is “accelerate degradation”.
